{
  "source": "patent US20260216143A1",
  "about": "“PHARMACEUTICAL COMPOSITION FOR TREATING CHRONIC KIDNEY DISEASE” (priority 2020, published 2026)",
  "key": {"[1]": {"system": "Alport syndrome model (129-Col4a3tm 1Dec/J) mice", "assay": "Body weight of Alport syndrome (AS) mice (Example 2)", "type": "in vivo, mouse", "details": "FIG. 16; groups receiving a DHA ethyl ester; p<0.01, t test", "method": "Body weight was measured using a scale for animals twice weekly from the grouping day and daily from the day of the first animal death until the sampling day of each group.\nAnimals were restrained, and a test substance was administered directly into the stomach using a 1-mL syringe and a sonde (Fuchigami Kikai, CAT No. 5200). Administration was performed in accordance with the conditions described in Section 5.1., so that a volume of 5 mL/kg should be administered to each animal. The volume administered was calculated on the basis of the most recent (before the administration day) body weight.\nThe mean and standard error of the body weight and the wet weight of each organ were calculated for each study group. Further, each of the measured values was compared between the Group Number (2) and each of other groups. A statistical analysis add-in software “Excel Statistics 2015” (Social Survey Research Information Co., Ltd.) was used for statistical processing, and a significant difference was determined with a […] (p value)<0.05."}, "Col4a3−/− mice": {"system": "Col4a3−/− mice", "details": "cited from earlier work"}, "[2]": {"system": "Alport syndrome model (129-Col4a3tm1Dec/J) mice", "assay": "Survival of Alport syndrome model mice, oral repeated administration (Example 1)", "type": "in vivo, mouse", "details": "Pirespa 100 mg/kg/day, FIG. 1", "method": "Each test substance is orally and repeatedly administered to Alport syndrome model (129-Col4a3tm1Dec/J) mice for 10 weeks, and then a serum biochemistry test is performed. The kidneys are further observed histopathologically to examine the effect of administration of each test substance on the kidneys.\nTest substances were prepared for each use before use on the experiment day. Candesartan was dissolved at a dose of 4 mg/mL in phosphate-buffered saline (hereinafter referred to as PBS) to prepare a dosing solution (10 mg/2.5 mL/kg) for Group Numbers 6 and 7. A solution was prepared by diluting this dosing solution with an equal amount of PBS as a dosing solution (10 mg/5 ml/kg) for Group Number 3. Pirespa was dissolved at a dose of 40 mg/mL in PBS and dissolved in PBS which was to be a dosing solution (50 mg/1.25 mL/kg) for Group Number 6. A solution was prepared by diluting this dosing solution with an equal amount of PBS as a dosing solution (50 mg/2.5 mL/kg) for Group Number 4. Lotriga was suspended at a dose of […] in a 0.5% methylcellulose solution (hereinafter referred to as MC) to prepare a dosing solution (1500 mg/2.5 mL/kg) for Group Number 7. […]\nAnimals were restrained, and a test substance was orally administered using a 1-mL syringe and a sonde. […] The volume administered was calculated on the basis of the most recent body weight. […]"}, "[3]": {"system": "Alport syndrome model (129-Col4a3tm1Dec/J) mice", "type": "in vivo", "details": "FIG. 4", "method": "(§1) The body weights of animals were measured at Day 45, blood was drawn from the caudal vena cava under anesthesia with isoflurane, and animals were euthanized by exsanguination. Death was confirmed by visually observing cardiopulmonary arrest (euthanasia). Then, the left and right kidneys, the left and right femurs, the left and right eyeballs, the cochlea, the heart, and the pancreas were collected and trimmed, and the wet weights of the left and right kidneys, the left and right femurs, and the heart were measured. Among the collected biotissues, the left and right femurs were immersed in a 70% ethanol solution. Other tissues were immersed in a 10% neutral buffered formalin solution. Of note, the right kidney was divided into two at the renal pelvis and immersed after to obtain kidney specimens.\nThe obtained blood was allowed to stand at room temperature for at least four hours and centrifuged under conditions of 4° C., 12000 rpm, and 3 min to obtain serum. Serum was divided into two tubes and frozen.\nBlood biochemistry test items were measured using the frozen serum delegated to the external facility. The measurement items were total protein, albumin, blood urea nitrogen (BUN), creatinine (CRE), uric acid, sodium (Na), potassium (K), chloride (CI), calcium, phosphorus, amylase, lipase, AST (GOT), ALT (GPT), Y-GTP, LDH, triglyceride, total cholesterol, HDL cholesterol, total bilirubin, and glucose. Pooled specimens of each group were used for measurement."}, "[4]": {"system": "Alport syndrome model (129-Col4a3tm1Dec/J) mice", "assay": "Body weight of Alport syndrome model mice (Example 1)", "type": "in vivo, mouse", "details": "FIG. 2; body weight immediately before death used for dead mice; candesartan 10 mg/kg, Lotriga 1500 mg/kg", "experimental": "Body weight was measured using a scale for animals twice weekly from the grouping day and on the sampling day of each group.\nAnimals were restrained, and a test substance was orally administered using a 1-mL syringe and a sonde. Administration was performed in accordance with the conditions described in Section 5.1., so that a volume of approximately 0.1 mL should be administered to each animal. The volume administered was calculated on the basis of the most recent body weight. […] The administration interval was 6 hours or longer.\nOf note, when the mean body weight was calculated, the body weight of a dead mouse was not assumed as zero, and the body weight measured immediately before death was used for calculation."}, "[5]": {"system": "Alport syndrome model (129-Col4a3tm1Dec/J) mice", "assay": "Histopathological test of the kidneys: HE, PAS, MT, PAM staining and damage scoring (Example 1)", "type": "in vivo, mouse", "method": "as §1\nThe kidneys immersed in a 10% neutral buffered formalin solution were sent to the external facility, and Hematoxylin-Eosin (HE) staining, Periodic Acid-Schiff (PAS) staining, Masson's Trichrome (MT) staining, and Periodic Acid Methenamine silver (PAM) staining were performed for pathological assessment.\nThe severity of glomerular damage was assessed in each group of Alport syndrome model mice. Specifically, the severity was quantified for glomerulosclerosis, crescent formation, and basement membrane with a double contour with five levels (0, no change; 1, slight; 2, mild; 3, moderate; 4, severe. Refer to “Guidance on pathological diagnosis of diabetic nephropathy and hypertensive nephrosclerosis,” Tokyo Igakusha).\nThe severity of renal tubular damage was assessed in each group of Alport syndrome model mice. Specifically, the severity was quantified for renal tubular expansion accompanied by hyaline casts, interstitial fibrosis, inflammatory cell infiltration into the interstitium, and renal tubular expansion accompanied by cellular casts with five levels (0, no change; 1, slight; 2, mild; 3, moderate; 4, severe. Refer to “Guidance on pathological diagnosis of diabetic nephropathy and hypertensive nephrosclerosis,” Tokyo Igakusha)."}, "[6]": {"details": "serum, pooled specimens per group, Day 45"}},
  "data": [
    {"compound": "CC/C=C\\C/C=C\\C/C=C\\C/C=C\\C/C=C\\C/C=C\\CCC(=O)OCC", "note": "[DHA ethyl ester, docosahexaenoic acid ethyl ester]", "values": [
      {"measurement": "mean body weight vs untreated group", "setting": "[1]", "result": "significantly increased as compared with the untreated group"}
    ]},
    {"compound": "CCOC(=O)[C@H](CCc1ccccc1)N[C@@H](C)C(=O)N1[C@H](C(=O)O)C[C@@H]2CCC[C@@H]21", "note": "[ramipril]", "values": [
      {"measurement": "serum urea concentration", "setting": "Col4a3−/− mice", "result": "markedly decreased"},
      {"measurement": "survival time", "setting": "Col4a3−/− mice", "result": "significantly prolonged"},
      {"measurement": "urine protein level", "setting": "Col4a3−/− mice", "result": "markedly decreased"}
    ]},
    {"compound": "Cc1ccc(=O)n(-c2ccccc2)c1", "note": "[Pirespa]", "values": [
      {"measurement": "survival (in words)", "setting": "[2]; up to Day 45, candesartan 10 mg/kg, Lotriga 1500 mg/kg", "result": "all mice died early"}
    ]},
    {"compound": "CCOc1nc2cccc(C(=O)OC(C)OC(=O)OC3CCCCC3)c2n1Cc1ccc(-c2ccccc2-c2nn[nH]n2)cc1", "note": "(stereo not drawn) [candesartan, Candesartan cilexetil]", "values": [
      {"measurement": "serum urea concentration", "setting": "Col4a3−/− mice", "result": "markedly decreased"},
      {"measurement": "survival time", "setting": "Col4a3−/− mice", "result": "significantly prolonged"},
      {"measurement": "urine protein level", "setting": "Col4a3−/− mice", "result": "markedly decreased"},
      {"measurement": "survival rate", "setting": "[2]; Day 45 (end of study), candesartan 10 mg/kg once daily, Lotriga 1500 mg/kg once daily", "result": 40, "unit": "%"},
      {"measurement": "progression of renal failure", "setting": "[3]; judged from blood biochemistry", "result": "at a level comparable to that in the untreated group"},
      {"measurement": "BUN level", "setting": "[3]; [6]", "result": "very high and as high as in the untreated group"},
      {"measurement": "K level", "setting": "[3]; [6]", "result": "development of hyperkalemia"},
      {"measurement": "creatinine level", "setting": "[3]; [6]", "result": "very high and as high as in the untreated group"},
      {"measurement": "changes with time in the mean body weight", "setting": "[4]", "result": "body weight loss began from 25 days after administration, and marked body weight loss was also observed in surviving mice"},
      {"measurement": "kidney histopathology, HE staining findings", "setting": "[5]; FIG. 7", "result": "adhesion to the glomerulus due to glomerulosclerosis and crescent formation, renal tubular expansion, and lymphocyte infiltration into the interstitium were observed at various sites"},
      {"measurement": "kidney histopathology, PAS staining findings", "setting": "[5]; FIG. 8", "result": "glomerulosclerosis, in which PAS-positive substances were deposited on the mesangial substrate, and growth of crescent cells were observed"},
      {"measurement": "kidney histopathology, MT staining (fibrosis)", "setting": "[5]; FIG. 9", "result": "Fibrosis was observed in an area of crescent hyperplasia and in the renal tubular interstitium"},
      {"measurement": "kidney histopathology, PAM staining (double contour of the loop wall)", "setting": "[5]; FIG. 10", "result": "A double contour of the loop wall was observed"}
    ]}
  ]
}
